ChEMBL document CHEMBL4354881, “Optimization of Potent ATAD2 and CECR2 Bromodomain Inhibitors with an Atypical Binding Mode” (J Med Chem, 2020)

Legend:
[1] = target: Bromodomain-containing protein 4 (Homo sapiens, UniProt O60885, Y390A); assay: Displacement of Alexa Fluor 647-labeled ligand from BRD4 BD1 Y390A mutant (1 to 477 residue) (unknown origin) measured after 30 mins by TR-FRET assay
[2] = target: T1, ATPase family AAA domain-containing protein 2 (Homo sapiens, UniProt Q6PL18); assay: Displacement of Alexa Fluor 488-labeled ligand from FLAG-6His-Tev-fused ATAD2 (981 to 1121 residue) (unknown origin) measured after 30 mins by TR-FRET assay
T1 sequence (Q6PL18 whole entry): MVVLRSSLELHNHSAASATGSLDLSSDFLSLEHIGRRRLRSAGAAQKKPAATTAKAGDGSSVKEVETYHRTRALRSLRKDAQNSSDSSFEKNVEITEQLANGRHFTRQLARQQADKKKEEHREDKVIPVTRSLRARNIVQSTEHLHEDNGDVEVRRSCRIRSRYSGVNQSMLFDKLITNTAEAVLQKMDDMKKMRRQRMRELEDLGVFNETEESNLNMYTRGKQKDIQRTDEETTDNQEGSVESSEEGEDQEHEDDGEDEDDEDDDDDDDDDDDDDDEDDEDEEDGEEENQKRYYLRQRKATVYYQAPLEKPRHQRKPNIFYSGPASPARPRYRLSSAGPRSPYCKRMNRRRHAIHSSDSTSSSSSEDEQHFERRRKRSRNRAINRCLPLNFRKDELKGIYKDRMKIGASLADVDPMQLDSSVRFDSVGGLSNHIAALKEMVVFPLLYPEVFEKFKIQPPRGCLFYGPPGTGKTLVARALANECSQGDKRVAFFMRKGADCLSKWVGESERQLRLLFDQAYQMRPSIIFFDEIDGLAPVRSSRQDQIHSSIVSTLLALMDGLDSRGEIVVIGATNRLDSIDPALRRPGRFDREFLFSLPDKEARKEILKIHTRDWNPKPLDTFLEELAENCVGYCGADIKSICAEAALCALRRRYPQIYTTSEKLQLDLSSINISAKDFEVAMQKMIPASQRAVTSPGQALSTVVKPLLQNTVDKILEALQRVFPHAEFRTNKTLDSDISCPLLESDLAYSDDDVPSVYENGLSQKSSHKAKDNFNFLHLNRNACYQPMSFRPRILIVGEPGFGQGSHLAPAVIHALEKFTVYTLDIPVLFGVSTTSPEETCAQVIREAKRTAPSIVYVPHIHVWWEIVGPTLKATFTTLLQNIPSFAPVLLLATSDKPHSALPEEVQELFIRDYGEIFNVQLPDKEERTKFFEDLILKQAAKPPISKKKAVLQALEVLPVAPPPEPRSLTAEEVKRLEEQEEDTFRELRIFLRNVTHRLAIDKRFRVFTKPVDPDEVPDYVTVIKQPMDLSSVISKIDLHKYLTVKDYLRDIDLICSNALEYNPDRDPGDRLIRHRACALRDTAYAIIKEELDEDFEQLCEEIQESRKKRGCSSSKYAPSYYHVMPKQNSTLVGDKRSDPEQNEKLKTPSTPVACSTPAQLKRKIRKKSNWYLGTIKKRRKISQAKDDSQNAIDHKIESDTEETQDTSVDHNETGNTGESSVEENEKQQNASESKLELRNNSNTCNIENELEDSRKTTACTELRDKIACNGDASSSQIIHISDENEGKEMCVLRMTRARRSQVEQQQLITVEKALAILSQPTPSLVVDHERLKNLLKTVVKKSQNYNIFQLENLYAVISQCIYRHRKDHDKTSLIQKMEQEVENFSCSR

[3] = target: Chromatin remodeling regulator CECR2 (Homo sapiens, UniProt Q9BXF3); assay: Displacement of Alexa Fluor 647-labeled GSK tracer from FLAG-6His-Tev-fused CECR2 (424 to 543 residue) (unknown origin) measured after 15 mins by TR-FRET assay
[4] = Permeability of the compound by artificial lipid membrane-based method; type: ADME; settings: not told; read-out: permeability

Chain of Chromatin remodeling regulator CECR2 (Q9BXF3 whole entry, the tested form may be a part): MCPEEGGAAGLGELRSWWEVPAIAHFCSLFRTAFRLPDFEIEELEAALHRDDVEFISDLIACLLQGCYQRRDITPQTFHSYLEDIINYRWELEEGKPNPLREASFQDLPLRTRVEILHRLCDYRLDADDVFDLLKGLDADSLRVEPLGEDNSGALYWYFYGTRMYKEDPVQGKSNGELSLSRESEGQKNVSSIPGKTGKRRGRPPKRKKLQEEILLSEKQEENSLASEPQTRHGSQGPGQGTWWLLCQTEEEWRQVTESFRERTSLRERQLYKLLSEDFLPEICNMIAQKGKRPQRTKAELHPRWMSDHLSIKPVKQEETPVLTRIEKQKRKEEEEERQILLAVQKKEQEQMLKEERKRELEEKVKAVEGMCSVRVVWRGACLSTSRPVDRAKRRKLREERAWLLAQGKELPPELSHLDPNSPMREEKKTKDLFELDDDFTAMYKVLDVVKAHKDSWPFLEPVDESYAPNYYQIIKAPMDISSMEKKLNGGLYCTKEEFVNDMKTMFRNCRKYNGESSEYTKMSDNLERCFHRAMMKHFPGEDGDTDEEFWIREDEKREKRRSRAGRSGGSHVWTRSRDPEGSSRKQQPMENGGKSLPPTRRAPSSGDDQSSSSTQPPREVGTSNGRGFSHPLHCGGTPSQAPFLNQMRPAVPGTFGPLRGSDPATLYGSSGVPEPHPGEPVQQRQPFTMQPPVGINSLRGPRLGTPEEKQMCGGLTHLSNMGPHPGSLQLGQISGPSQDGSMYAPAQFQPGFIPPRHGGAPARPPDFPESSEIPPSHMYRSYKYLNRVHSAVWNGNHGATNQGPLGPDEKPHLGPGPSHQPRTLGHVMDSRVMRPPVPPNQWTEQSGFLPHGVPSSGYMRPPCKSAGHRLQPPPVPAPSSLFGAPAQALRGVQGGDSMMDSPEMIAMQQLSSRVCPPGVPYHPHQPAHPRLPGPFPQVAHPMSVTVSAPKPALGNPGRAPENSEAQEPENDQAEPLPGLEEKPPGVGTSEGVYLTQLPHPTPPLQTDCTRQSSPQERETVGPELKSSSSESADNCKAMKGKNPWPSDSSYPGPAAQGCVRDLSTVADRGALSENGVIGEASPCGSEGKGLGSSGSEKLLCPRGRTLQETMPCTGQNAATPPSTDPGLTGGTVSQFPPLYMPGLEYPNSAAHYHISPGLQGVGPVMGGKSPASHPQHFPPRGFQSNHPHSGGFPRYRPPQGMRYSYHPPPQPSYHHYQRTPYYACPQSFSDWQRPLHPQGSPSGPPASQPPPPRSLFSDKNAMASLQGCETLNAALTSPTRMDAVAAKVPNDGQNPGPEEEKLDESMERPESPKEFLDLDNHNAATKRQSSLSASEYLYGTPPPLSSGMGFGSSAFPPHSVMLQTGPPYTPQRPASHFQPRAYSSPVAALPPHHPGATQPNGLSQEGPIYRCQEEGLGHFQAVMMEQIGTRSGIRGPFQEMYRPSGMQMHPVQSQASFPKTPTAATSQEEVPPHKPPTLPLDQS

| Structure (SMILES) | IC50 [1] [µM] | IC50 [2] [µM] | IC50 [3] [µM] | Papp [4] [×10⁻⁶ cm/s] |
| --- | --- | --- | --- | --- |
| O=C(CN1C(=O)CNC1=O)Nc1ccc(Cl)c(S(=O)(=O)N2CCC3(CC3)C2)c1 | > 50.1 | 1 | 3.98 |  |
| O=C(CN1C(=O)COC1=O)Nc1ccc(Cl)c(S(=O)(=O)N2CCCC2)c1 | > 50.1 | 1.26 | 1.58 | 5.4 |
| CN(C)S(=O)(=O)c1cc(NC(=O)CN2C(=O)CNC2=O)ccc1Cl | 39.8 | 12.6 | 79.4 |  |
| O=C(CN1C(=O)CNC1=O)Nc1ccc(Cl)c(S(=O)(=O)C2CCCCC2)c1 | > 50.1 | > 100 | > 100 |  |
| O=C(CN1C(=O)CNC1=O)Nc1ccc(Cl)c(S(=O)(=O)N2CCCCCC2)c1 | > 50.1 | 1.26 | 12.6 |  |
| C[C@H]1CCN(S(=O)(=O)c2cc(NC(=O)Cn3c(=O)oc4ccccc43)ccc2Br)C1 | 10 | 2 | 0.0631 |  |
| CC(=O)Nc1ccc(Cl)c(S(=O)(=O)N2CCCC2)c1 | 200 | 31.6 | 79.4 | 27 |
| CN1CCc2c(nnn2CC(=O)Nc2ccc(Cl)c(S(=O)(=O)N3CC[C@@H](C4CC4)C3)c2)C1 | 39.8 | 6.31 | 0.126 |  |
| CC1(C)CCN(S(=O)(=O)c2cc(NC(=O)CN3C(=O)CNC3=O)ccc2Cl)C1 | > 50.1 | 3.16 | 25.1 |  |
| CC1(C2CC2)NC(=O)N(CC(=O)Nc2ccc(Cl)c(S(=O)(=O)N3CCCC3)c2)C1=O (racemic) | > 501 | 1 | 1.58 | 10 |
| O=C(CN1C(=O)CCC1=O)Nc1ccc(Cl)c(S(=O)(=O)N2CCCC2)c1 | > 50.1 | 1.26 | 3.98 | 4.2 |
| O=C(CN1CCCC1=O)Nc1ccc(Cl)c(S(=O)(=O)N2CCCC2)c1 | > 50.1 | 50.1 | 20 | 12 |
| CC1CCCN1S(=O)(=O)c1cc(NC(=O)CN2C(=O)CNC2=O)ccc1Cl (racemic) | 31.6 | 2.51 | 7.94 |  |
| O=C(CN1C(=O)CNC1=O)Nc1ccc(Cl)c(S(=O)(=O)N2CCC(C3CC3)C2)c1 (racemic) | > 50.1 | 0.501 | 0.501 |  |
| CC1(C)NC(=O)N(CC(=O)Nc2ccc(Cl)c(S(=O)(=O)N3CCCC3)c2)C1=O | > 50.1 | 1.58 | 5.01 | 1.8 |
| O=C(CN1C(=O)CNC1=O)Nc1ccc(Cl)c(S(=O)(=O)N2CCCCC2)c1 | > 50.1 | 2.51 | 31.6 |  |
| O=C(CN1C(=O)CNC1=O)Nc1ccc(Cl)c(S(=O)(=O)n2ccnc2)c1 | > 50.1 | > 100 | > 100 |  |
| C[C@@H]1CN(S(=O)(=O)c2cc(NC(=O)CN3C(=O)CNC3=O)ccc2Cl)C[C@H]1C (racemic) | 20 | 0.251 | 2 |  |
| C[C@@H]1CN(S(=O)(=O)c2cc(NC(=O)CN3C(=O)CNC3=O)ccc2Cl)C[C@@H]1C | > 50.1 | 2 | 20 |  |
| COCC1CCN(S(=O)(=O)c2cc(NC(=O)CN3C(=O)CNC3=O)ccc2Cl)C1 (racemic) | > 50.1 | 1 | 3.98 |  |

Results, then the compound that gave them:

| IC50 [1] [µM] | IC50 [2] [µM] | IC50 [3] [µM] | Papp [4] [×10⁻⁶ cm/s] | Structure (SMILES) |
| --- | --- | --- | --- | --- |
| > 50.1 | 2.51 | 1.58 |  | COCc1cn(CC(=O)Nc2ccc(Br)c(S(=O)(=O)N3CC[C@H](C)C3)c2)nn1 |
| > 50.1 | 6.31 | 1 |  | Cc1nnn(CC(=O)Nc2ccc(Br)c(S(=O)(=O)N3CC[C@H](C)C3)c2)c1C |
| > 50.1 | 0.794 | 3.16 |  | C[C@H]1CCN(S(=O)(=O)c2cc(NC(=O)CN3C(=O)CNC3=O)ccc2Cl)C1 |
| > 50.1 | 1 | 5.01 |  | C[C@@H]1CCN(S(=O)(=O)c2cc(NC(=O)CN3C(=O)CNC3=O)ccc2Cl)C1 |
| 15.8 | 2 | 0.2 |  | C[C@H]1CCN(S(=O)(=O)c2cc(NC(=O)Cn3nnc4ccccc43)ccc2Br)C1 |
| 50.1 | 1 | 0.251 |  | COCc1cnnn1CC(=O)Nc1ccc(Br)c(S(=O)(=O)N2CC[C@H](C)C2)c1 |
| 15.8 | 2.51 | 0.251 |  | C[C@H]1CCN(S(=O)(=O)c2cc(NC(=O)Cn3nnc4c3CCNC4)ccc2Br)C1 |
| > 50.1 | 0.251 | 0.398 |  | C[C@@]1(C2CC2)NC(=O)N(CC(=O)Nc2ccc(Br)c(S(=O)(=O)N3CCCC3)c2)C1=O |
| 39.8 | 1.58 | 1.58 |  | CCCc1cn(CC(=O)Nc2ccc(Br)c(S(=O)(=O)N3CC[C@H](C)C3)c2)nn1 |
| > 50.1 | 1.26 | 0.501 |  | C[C@H]1CCN(S(=O)(=O)c2cc(NC(=O)Cn3c(=O)[nH]c4ccccc43)ccc2Br)C1 |
| 39.8 | 0.0251 | 0.126 |  | C[C@@H]1CN(S(=O)(=O)c2cc(NC(=O)CN3C(=O)NC(C)(C4CC4)C3=O)ccc2Br)C[C@H]1C (relative stereo) |
| 31.6 | 2.51 | 0.0501 |  | CCN1CCc2c(nnn2CC(=O)Nc2ccc(Br)c(S(=O)(=O)N3CC[C@H](C)C3)c2)C1 |
| 10 | 3.16 | 0.0794 |  | CCCc1cnnn1CC(=O)Nc1ccc(Br)c(S(=O)(=O)N2CC[C@H](C)C2)c1 |
| 25.1 | 1 | 0.251 |  | C[C@H]1CCN(S(=O)(=O)c2cc(NC(=O)Cc3noc4ccccc34)ccc2Br)C1 |
| > 50.1 | 0.631 | 1.26 |  | CCC1CCN(S(=O)(=O)c2cc(NC(=O)CN3C(=O)CNC3=O)ccc2Cl)C1 (racemic) |
| > 50.1 | 1.26 | 0.251 |  | C[C@H]1CCN(S(=O)(=O)c2cc(NC(=O)Cn3cc(CN(C)C)nn3)ccc2Br)C1 |
| 25.1 | 3.16 | 0.0398 |  | CN1CCc2c(nnn2CC(=O)Nc2ccc(Br)c(S(=O)(=O)N3CC[C@@H](C4CC4)C3)c2)C1 |
| 50.1 | 2 | 0.0316 |  | CC(C)N1CCc2c(nnn2CC(=O)Nc2ccc(Br)c(S(=O)(=O)N3CC[C@H](C)C3)c2)C1 |
| > 50.1 | 0.1 | 0.126 |  | C[C@H]1CCN(S(=O)(=O)c2cc(NC(=O)CN3C(=O)N[C@](C)(C4CC4)C3=O)ccc2Br)C1 |
| > 50.1 | 2 | 0.251 |  | C[C@H]1CCN(S(=O)(=O)c2cc(NC(=O)Cn3nnc4c3CN(C)CC4)ccc2Br)C1 |
| > 50.1 | 2 | 0.0501 |  | C[C@H]1CCN(S(=O)(=O)c2cc(NC(=O)Cn3nnc4c3CCN(C)C4)ccc2Br)C1 |
| > 50.1 | 2.51 | 7.94 |  | C[C@H]1CCN(S(=O)(=O)c2cc(NC(=O)Cc3coc4ccccc34)ccc2Br)C1 |
| > 50.1 | 3.98 | 0.0794 |  | C[C@H]1CCN(S(=O)(=O)c2cc(NC(=O)Cn3nncc3CN(C)C)ccc2Br)C1 |
| > 50.1 | 3.98 | 3.98 |  | C[C@H]1CCN(S(=O)(=O)c2cc(NC(=O)Cn3ccnn3)ccc2Br)C1 |
| > 50.1 | 1.58 | 0.1 |  | CC(=O)N1CCc2c(nnn2CC(=O)Nc2ccc(Br)c(S(=O)(=O)N3CC[C@H](C)C3)c2)C1 |
